Data as given in the kinase profiling compilation of Christmann-Franck et al. (2016).

Experiments:
Assay in all cases: KINOMEscan competition binding
Conditions in all cases: compound 1.0 µM
PIK3CG (human) = PIK3CG (human) (UniProt P48736)
IRAK4 (human) = IRAK4 (human) (UniProt Q9NWZ3)
CDKL5 (human) = CDKL5 (human) (UniProt O76039)
MAPK1 (human) = MAPK1 (human) (UniProt P28482)
[1] = tested on: EGFR (human), P00533 [A750P; 747-749 del]
PAK2 (human) = PAK2 (human) (UniProt Q13177)
PHKG1 (human) = PHKG1 (human) (UniProt Q16816)
STK17B (human) = STK17B (human) (UniProt O94768)
STK17B (human), sequence (O94768 whole entry, looked up): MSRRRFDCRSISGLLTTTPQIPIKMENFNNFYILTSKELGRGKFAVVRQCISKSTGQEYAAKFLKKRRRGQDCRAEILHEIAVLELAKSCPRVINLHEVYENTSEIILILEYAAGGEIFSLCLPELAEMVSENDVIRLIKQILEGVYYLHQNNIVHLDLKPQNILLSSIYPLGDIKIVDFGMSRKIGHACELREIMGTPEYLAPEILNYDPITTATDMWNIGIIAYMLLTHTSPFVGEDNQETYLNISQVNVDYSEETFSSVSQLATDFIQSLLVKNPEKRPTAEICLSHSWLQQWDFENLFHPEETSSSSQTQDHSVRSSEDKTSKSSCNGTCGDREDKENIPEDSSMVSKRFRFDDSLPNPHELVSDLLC

STK11 (human) = STK11 (human) (UniProt Q15831)
STK17A (human) = STK17A (human) (UniProt Q9UEE5)
MAP3K11 (human) = MAP3K11 (human) (UniProt Q16584)
MYO3B (human) = MYO3B (human) (UniProt Q8WXR4)
CSNK1A1L (human) = CSNK1A1L (human) (UniProt Q8N752)
LCK (human) = LCK (human) (UniProt P06239)
GSK3A (human) = GSK3A (human) (UniProt P49840)
MET (human) = MET (human) (UniProt P08581)
ANKK1 (human) = ANKK1 (human) (UniProt Q8NFD2)
PTK2 (human) = PTK2 (human) (UniProt Q05397)
HCK (human) = HCK (human) (UniProt P08631)
HCK (human), sequence (P08631 whole entry, looked up): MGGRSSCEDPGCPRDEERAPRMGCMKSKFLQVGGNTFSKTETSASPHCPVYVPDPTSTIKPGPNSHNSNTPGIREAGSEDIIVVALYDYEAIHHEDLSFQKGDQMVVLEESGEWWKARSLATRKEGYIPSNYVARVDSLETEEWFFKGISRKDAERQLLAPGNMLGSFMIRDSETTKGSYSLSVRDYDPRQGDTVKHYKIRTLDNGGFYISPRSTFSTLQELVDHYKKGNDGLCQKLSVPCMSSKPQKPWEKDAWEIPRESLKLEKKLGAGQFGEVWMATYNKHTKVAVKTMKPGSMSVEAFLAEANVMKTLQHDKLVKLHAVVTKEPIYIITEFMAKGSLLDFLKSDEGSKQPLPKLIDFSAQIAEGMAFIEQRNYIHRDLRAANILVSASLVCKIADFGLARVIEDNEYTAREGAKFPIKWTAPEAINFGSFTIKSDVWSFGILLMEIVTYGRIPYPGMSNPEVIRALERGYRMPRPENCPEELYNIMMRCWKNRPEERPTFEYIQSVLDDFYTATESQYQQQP

DYRK1B (human) = DYRK1B (human) (UniProt Q9Y463)
DYRK1B (human), sequence (Q9Y463 whole entry, looked up): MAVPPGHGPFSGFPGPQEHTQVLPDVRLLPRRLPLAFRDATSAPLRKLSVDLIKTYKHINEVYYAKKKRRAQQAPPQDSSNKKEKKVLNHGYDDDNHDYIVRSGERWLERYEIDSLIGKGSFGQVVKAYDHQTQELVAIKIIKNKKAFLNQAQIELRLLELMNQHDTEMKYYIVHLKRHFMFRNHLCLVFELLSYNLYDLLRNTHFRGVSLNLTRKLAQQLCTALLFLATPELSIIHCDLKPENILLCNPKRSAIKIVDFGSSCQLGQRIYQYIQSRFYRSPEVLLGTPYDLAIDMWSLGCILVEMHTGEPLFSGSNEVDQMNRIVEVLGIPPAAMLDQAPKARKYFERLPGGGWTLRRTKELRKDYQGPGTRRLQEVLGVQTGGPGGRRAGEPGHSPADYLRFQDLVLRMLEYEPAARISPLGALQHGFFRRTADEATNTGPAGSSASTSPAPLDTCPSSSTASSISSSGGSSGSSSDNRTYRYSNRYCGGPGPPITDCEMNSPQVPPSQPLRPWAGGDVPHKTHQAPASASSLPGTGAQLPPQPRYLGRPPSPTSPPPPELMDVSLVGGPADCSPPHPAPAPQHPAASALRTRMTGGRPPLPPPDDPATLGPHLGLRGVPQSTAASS

RIOK3 (human) = RIOK3 (human) (UniProt O14730)
STK3 (human) = STK3 (human) (UniProt Q13188)
CASK (human) = CASK (human) (UniProt O14936)
LIMK2 (human) = LIMK2 (human) (UniProt P53671)
CDK17 (human) = CDK17 (human) (UniProt Q00537)
PKN3 (M.tuberculosis) = PKN3 (M.tuberculosis) (UniProt Q6P5Z2)
RPS6KA4 KD2 (human) = RPS6KA4 KD2 (human) (UniProt O75676)
RPS6KA4 KD2 (human), sequence (O75676 whole entry, looked up): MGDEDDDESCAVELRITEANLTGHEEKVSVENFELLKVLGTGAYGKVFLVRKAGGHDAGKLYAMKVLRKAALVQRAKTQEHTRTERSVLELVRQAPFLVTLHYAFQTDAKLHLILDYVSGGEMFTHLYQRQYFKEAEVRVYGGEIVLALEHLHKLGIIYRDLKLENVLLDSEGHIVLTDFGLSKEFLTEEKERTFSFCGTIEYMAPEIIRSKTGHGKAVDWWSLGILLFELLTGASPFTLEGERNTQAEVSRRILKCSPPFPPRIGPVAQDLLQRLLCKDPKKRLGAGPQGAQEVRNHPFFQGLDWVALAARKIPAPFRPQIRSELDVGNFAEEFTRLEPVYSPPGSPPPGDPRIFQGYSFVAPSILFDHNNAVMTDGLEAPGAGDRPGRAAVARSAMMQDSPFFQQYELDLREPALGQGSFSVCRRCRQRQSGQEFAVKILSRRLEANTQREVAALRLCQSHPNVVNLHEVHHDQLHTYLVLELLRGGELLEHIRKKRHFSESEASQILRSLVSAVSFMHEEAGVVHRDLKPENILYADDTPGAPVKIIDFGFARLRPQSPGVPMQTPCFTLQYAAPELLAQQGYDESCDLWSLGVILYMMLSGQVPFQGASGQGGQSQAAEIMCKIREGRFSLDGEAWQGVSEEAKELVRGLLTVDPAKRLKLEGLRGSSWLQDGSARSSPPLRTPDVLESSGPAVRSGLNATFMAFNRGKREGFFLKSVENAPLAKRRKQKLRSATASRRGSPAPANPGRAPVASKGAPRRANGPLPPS

MAP3K6 (human) = MAP3K6 (human) (UniProt O95382)
PDGFRB (human) = PDGFRB (human) (UniProt P09619)
MERTK (human) = MERTK (human) (UniProt Q12866)
MAP4K4 (human) = MAP4K4 (human) (UniProt O95819)
MAP4K4 (human), sequence (O95819 whole entry, looked up): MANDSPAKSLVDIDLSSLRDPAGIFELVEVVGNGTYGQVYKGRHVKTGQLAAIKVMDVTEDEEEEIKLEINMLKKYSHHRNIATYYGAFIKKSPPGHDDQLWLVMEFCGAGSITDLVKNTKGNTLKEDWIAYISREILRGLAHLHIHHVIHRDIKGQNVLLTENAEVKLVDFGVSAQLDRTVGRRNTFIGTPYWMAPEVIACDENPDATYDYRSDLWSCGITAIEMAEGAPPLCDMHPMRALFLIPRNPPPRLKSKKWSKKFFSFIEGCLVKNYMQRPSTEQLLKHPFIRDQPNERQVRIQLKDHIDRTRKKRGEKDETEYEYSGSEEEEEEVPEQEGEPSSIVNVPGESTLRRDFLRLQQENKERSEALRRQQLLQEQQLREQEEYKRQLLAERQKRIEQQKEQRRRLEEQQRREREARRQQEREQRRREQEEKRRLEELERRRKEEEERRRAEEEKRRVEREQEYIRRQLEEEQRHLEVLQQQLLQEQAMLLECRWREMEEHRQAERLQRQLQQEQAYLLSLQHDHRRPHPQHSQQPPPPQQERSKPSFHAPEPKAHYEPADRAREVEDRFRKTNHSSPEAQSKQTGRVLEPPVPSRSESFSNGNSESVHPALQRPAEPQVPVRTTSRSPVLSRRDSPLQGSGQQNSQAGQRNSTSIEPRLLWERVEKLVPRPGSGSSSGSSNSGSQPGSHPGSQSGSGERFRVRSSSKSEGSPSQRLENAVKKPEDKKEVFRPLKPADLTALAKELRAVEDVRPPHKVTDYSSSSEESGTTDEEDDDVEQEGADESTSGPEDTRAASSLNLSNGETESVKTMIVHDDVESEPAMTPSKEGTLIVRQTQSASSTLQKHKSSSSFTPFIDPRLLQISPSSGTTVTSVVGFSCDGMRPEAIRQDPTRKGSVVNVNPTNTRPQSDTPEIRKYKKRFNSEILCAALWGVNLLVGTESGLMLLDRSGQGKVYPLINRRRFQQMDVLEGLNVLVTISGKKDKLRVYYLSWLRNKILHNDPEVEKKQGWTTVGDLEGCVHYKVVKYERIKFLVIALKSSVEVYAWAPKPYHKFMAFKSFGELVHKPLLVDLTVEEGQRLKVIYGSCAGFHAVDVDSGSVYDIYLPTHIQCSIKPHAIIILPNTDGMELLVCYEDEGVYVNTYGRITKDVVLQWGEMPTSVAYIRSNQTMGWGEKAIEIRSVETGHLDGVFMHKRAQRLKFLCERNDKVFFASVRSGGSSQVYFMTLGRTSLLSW

[2] = tested on: EGFR (human), P00533 [747-751 del / S ins]
CAMK2B (human) = CAMK2B (human) (UniProt Q13554)
[3] = tested on: EGFR (human), P00533 [T790M/L858R]

CDKL5 (human), sequence (O76039 whole entry, looked up): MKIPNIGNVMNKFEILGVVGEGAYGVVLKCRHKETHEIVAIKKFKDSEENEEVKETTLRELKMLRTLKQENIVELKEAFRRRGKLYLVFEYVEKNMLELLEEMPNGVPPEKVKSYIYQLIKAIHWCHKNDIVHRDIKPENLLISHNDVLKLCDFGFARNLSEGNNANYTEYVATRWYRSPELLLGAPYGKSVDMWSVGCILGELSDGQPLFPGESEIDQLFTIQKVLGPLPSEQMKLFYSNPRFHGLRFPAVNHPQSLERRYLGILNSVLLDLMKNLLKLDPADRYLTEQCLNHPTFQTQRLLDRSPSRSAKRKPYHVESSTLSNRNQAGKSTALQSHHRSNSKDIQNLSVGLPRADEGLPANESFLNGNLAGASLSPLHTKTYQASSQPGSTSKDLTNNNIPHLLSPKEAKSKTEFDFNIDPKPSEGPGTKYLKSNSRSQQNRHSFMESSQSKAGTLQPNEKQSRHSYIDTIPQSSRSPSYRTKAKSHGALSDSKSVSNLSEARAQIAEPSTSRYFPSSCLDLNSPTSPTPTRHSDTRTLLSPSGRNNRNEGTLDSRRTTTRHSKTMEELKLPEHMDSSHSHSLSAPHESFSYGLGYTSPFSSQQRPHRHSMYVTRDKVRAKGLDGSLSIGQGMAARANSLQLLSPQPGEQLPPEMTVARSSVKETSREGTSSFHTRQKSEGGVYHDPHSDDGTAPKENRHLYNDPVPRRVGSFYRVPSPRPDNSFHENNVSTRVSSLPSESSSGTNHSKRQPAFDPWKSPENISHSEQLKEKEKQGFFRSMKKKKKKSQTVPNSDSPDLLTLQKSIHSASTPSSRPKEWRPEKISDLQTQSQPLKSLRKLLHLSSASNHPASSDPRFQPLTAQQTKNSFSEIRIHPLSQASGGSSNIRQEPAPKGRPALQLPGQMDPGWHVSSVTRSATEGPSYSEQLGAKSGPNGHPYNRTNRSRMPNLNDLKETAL
MAPK1 (human), sequence (P28482 whole entry, looked up): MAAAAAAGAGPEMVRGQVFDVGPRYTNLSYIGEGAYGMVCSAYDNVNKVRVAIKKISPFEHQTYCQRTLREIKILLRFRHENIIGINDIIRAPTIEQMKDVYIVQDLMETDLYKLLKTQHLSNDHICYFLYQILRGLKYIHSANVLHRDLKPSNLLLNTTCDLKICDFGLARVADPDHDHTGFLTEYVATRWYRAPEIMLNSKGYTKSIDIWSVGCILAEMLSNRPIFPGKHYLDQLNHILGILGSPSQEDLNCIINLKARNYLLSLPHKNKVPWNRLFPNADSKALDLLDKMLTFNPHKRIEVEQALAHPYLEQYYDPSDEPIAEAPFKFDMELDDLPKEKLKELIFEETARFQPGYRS

Q: Which results are given for `CNc1nc(Nc2ccc(C(=O)N3CCOCC3)cc2OC)ncc1Cl`?
A: kinase still bound, per cent of control (PIK3CG (human)): 78%; kinase still bound, per cent of control (IRAK4 (human)): 100%; residual activity (CDKL5 (human)): 94%; kinase still bound, per cent of control (MAPK1 (human)): 100%; kinase still bound, per cent of control [1]: 100%; kinase still bound, per cent of control (PAK2 (human)): 95%; kinase still bound, per cent of control (PHKG1 (human)): 76%; kinase still bound, per cent of control (STK17B (human)): 14%; kinase still bound, per cent of control (STK11 (human)): 90%; kinase still bound, per cent of control (STK17A (human)): 53%; kinase still bound, per cent of control (MAP3K11 (human)): 100%; kinase still bound, per cent of control (MYO3B (human)): 100%; kinase still bound, per cent of control (CSNK1A1L (human)): 94%; kinase still bound, per cent of control (LCK (human)): 100%; kinase still bound, per cent of control (GSK3A (human)): 100%; kinase still bound, per cent of control (MET (human)): 100%; kinase still bound, per cent of control (ANKK1 (human)): 100%; kinase still bound, per cent of control (PTK2 (human)): 88%; kinase still bound, per cent of control (HCK (human)): 100%; kinase still bound, per cent of control (DYRK1B (human)): 100%; kinase still bound, per cent of control (RIOK3 (human)): 87%; kinase still bound, per cent of control (STK3 (human)): 76%; kinase still bound, per cent of control (CASK (human)): 97%; kinase still bound, per cent of control (LIMK2 (human)): 100%; residual activity (CDK17 (human)): 97%; kinase still bound, per cent of control (PKN3 (M.tuberculosis)): 85%; kinase still bound, per cent of control (RPS6KA4 KD2 (human)): 23%; kinase still bound, per cent of control (MAP3K6 (human)): 100%; kinase still bound, per cent of control (PDGFRB (human)): 76%; kinase still bound, per cent of control (MERTK (human)): 100%; kinase still bound, per cent of control (MAP4K4 (human)): 77%; kinase still bound, per cent of control [2]: 100%; kinase still bound, per cent of control (CAMK2B (human)): 89%; kinase still bound, per cent of control [3]: 100%
